Laboratory results from ChEMBL document CHEMBL6109128, “Copper-KRAS-COX2 Axis: A Therapeutic Vulnerability in Pancreatic Cancer” (J Med Chem, 2025).
Activity calls are given as the source filed them. The rule behind the calls is not given here.

What was measured:
CT26 [1] = assay: Antitumor activity against mouse CT26 cells implanted in BALB/c mouse assessed as increase in cleaved PARP level at 140 mg/kg, po administered for 3 days; assay type: functional, organism-based; conditions: time 3.0 day
PANC-1 = assay: Cytotoxicity against human PANC-1 cells by MTT assay; assay type: functional, cell-based
[2] = Cmax in CD-1 mouse at 15 mg/kg, iv measured up to 24 hrs by LC-MS/MS analysis; assay type: ADME, organism-based; conditions: in vivo
[3] = Drug concentration in mouse heart at 15 mg/kg, iv measured at 7 hrs; assay type: ADME, organism-based; conditions: read-out: Ct
MIA PaCa-2 [4] = assay: Synergistic antiproliferative activity against human MIA PaCa-2 cells assessed as inhibition of colony formation at up to 1 uM incubated for 6 days in presence of rotec-oxib; assay type: functional, cell-based; conditions: time 6.0 day
HCT-116 [5] = assay: Induction of autophagy in human HCT-116 cells assessed as cell death at up to 1 uM incubated for 6 days in presence of MRT68921; assay type: functional, cell-based; conditions: time 6.0 day
BXPC-3 [6] = assay: Induction of apoptosis in human BXPC-3 cells assessed as increase in clonogenic survival up to 0.5 uM incubated for 6 days in presence of Z-VAD-FMK by crystal violet staining based analysis; assay type: functional, cell-based; conditions: time 6.0 day
MIA PaCa-2 [7] = assay: Synergistic antiproliferative activity against human MIA PaCa-2 cells assessed as inhibition of colony formation at up to 1 uM incubated for 6 days in presence of MK-663; assay type: functional, cell-based; conditions: time 6.0 day
Panc02 = assay: Cytotoxicity against mouse Panc02 cells by MTT assay; assay type: functional, cell-based
HCT-116 [8] = assay: Induction of apoptosis in human HCT-116 cells assessed as upregulation of cleaved PARP level at 1 uM measured for 24 hrs in presence of CuSO4 by Western blot analysis; assay type: functional, cell-based
KPC2 = assay: Synergistic antiproliferative activity against mouse KPC2 cells at 0.01 to 3 uM in presence of MRTX1133; assay type: functional, cell-based; conditions: dose 0.01-3 µM
BXPC-3 [9] = assay: Induction of apoptosis in human BXPC-3 cells assessed as increase in clonogenic survival up to 0.5 uM incubated for 6 days in presence of necrostatin-1 by crystal violet staining based analysis; assay type: functional, cell-based; conditions: time 6.0 day
[10] = Clearance in CD-1 mouse at 15 mg/kg, iv measured up to 24 hrs by LC-MS/MS analysis; assay type: ADME, organism-based; conditions: in vivo
HCT-116 [11] = assay: Induction of apoptosis in human HCT-116 cells assessed as increase in clonogenic survival up to 1 uM incubated for 6 days in presence of Z-VAD-FMK by crystal violet staining based analysis; assay type: functional, cell-based; conditions: time 6.0 day
MIA PaCa-2 [12] = assay: Induction of apoptosis in human MIA PaCa-2 cells assessed as upregulation of caspase 9 level at 10 uM measured for 48 hrs by Western blot analysis; assay type: functional, cell-based
[13] = Toxicity in BALB/c mouse assessed as pancrease damage at 20 mg/kg, po measured after 29 days by H and E staining based analysis; assay type: organism-based; conditions: in vivo, 696 h, time 29 day
[14] = Drug concentration in mouse kidney at 15 mg/kg, iv measured at 7 hrs; assay type: ADME, organism-based; conditions: read-out: Ct
[15] = Half life in CD-1 mouse at 30 mg/kg, po measured up to 24 hrs by LC-MS/MS analysis; assay type: ADME, organism-based; conditions: in vivo
MIA PaCa-2 [16] = assay: Synergistic antiproliferative activity against human MIA PaCa-2 cells assessed as inhibition of colony formation at up to 1 uM in presence of ZnCl2; assay type: functional, cell-based
[17] = AUC (0 to infinity) in CD-1 mouse at 30 mg/kg, po measured up to 24 hrs by LC-MS/MS analysis; assay type: ADME, organism-based; conditions: in vivo
CT26 [18] = assay: Antitumor activity against mouse CT26 cells implanted in BALB/c mouse assessed as increase in cleaved caspase-3 level at 50 mg/kg, po measured after 14 days; assay type: functional, organism-based; conditions: time 14.0 day
BXPC-3 [19] = assay: Cytotoxicity against human BXPC-3 cells by MTT assay; assay type: functional, cell-based
HCT-116 [20] = assay: Induction of autophagy in human HCT-116 cells assessed as cell death at up to 1 uM incubated for 6 days in presence of bafilomycin-A1; assay type: functional, cell-based; conditions: time 6.0 day
HCT-116 [21] = assay: Cytotoxicity against human HCT-116 cells assessed as cell death up to 1 uM incubated for 6 days in presence of NAC; assay type: functional, cell-based; conditions: time 6.0 day
HCT-116 [22] = assay: Synergistic antiproliferative activity against human HCT-116 cells assessed as inhibition of colony formation at up to 1 uM in presence of CuSO4; assay type: functional, cell-based
[23] = Oral bioavailability in CD-1 mouse at 30 mg/kg measured up to 24 hrs by LC-MS/MS analysis; assay type: ADME, organism-based; conditions: in vivo
[24] = Metabolic stability in mouse liver microsome assessed as half life measured up to 60 mins by LC-MS/MS analysis; assay type: ADME; conditions: liver microsomes
HCT-116 [25] = assay: Synergistic antiproliferative activity against human HCT-116 cells assessed as inhibition of colony formation at up to 1 uM incubated for 6 days in presence of valdecoxib; assay type: functional, cell-based; conditions: time 6.0 day
MIA PaCa-2 [26] = assay: Induction of apoptosis in human MIA PaCa-2 cells assessed as upregulation of cleaved PARP level at 10 uM measured for 48 hrs by Western blot analysis; assay type: functional, cell-based
[27] = Cmax in CD-1 mouse at 30 mg/kg, po measured up to 24 hrs by LC-MS/MS analysis; assay type: ADME, organism-based; conditions: in vivo
HCT-116 [28] = assay: Synergistic antiproliferative activity against human HCT-116 cells assessed as inhibition of colony formation at up to 1 uM incubated for 6 days in presence of MK-663; assay type: functional, cell-based; conditions: time 6.0 day
HCT-116 [29] = assay: Synergistic antiproliferative activity against human HCT-116 cells assessed as inhibition of colony formation at up to 1 uM incubated for 6 days in presence of rofecoxib; assay type: functional, cell-based; conditions: time 6.0 day
[30] = Cytotoxicity against mouse KPC2 cells by MTT assay; assay type: functional, cell-based
HCT-116 [31] = assay: Induction of ferroptosis in human HCT-116 cells assessed as change in GPX4 level at 5 to 10 uM incubated for 18 hrs by Western blot analysis; assay type: functional, cell-based; conditions: dose 5-10 µM
MIA PaCa-2 [32] = assay: Induction of ferroptosis in human MIA PaCa-2 cells assessed as cell death at up to 1 uM in presence of […]; assay type: functional, cell-based
SU.86.86 = assay: Cytotoxicity against human SU-86-86 cells by MTT assay; assay type: functional, cell-based
[33] = Half life in CD-1 mouse at 15 mg/kg, iv measured up to 24 hrs by LC-MS/MS analysis; assay type: ADME, organism-based; conditions: in vivo
MIA PaCa-2 [34] = assay: Synergistic antiproliferative activity against human MIA PaCa-2 cells assessed as inhibition of colony formation at up to 1 uM incubated for 6 days in presence of celecoxib; assay type: functional, cell-based; conditions: time 6.0 day
HCT-116 [35] = assay: Induction of ferroptosis in human HCT-116 cells assessed as cell death at up to 1 uM in presence of ferrostatin-1; assay type: functional, cell-based
BXPC-3 [36] = assay: Synergistic antiproliferative activity against human BXPC-3 cells assessed as inhibition of colony formation at up to 1 uM incubated for 6 days in presence of valdecoxib; assay type: functional, cell-based; conditions: time 6.0 day
MIA PaCa-2 [37] = assay: Antiproliferative activity against human MIA PaCa-2 cells harboring KRAS; assay type: functional, cell-based
MIA PaCa-2 [38] = assay: Cytotoxicity against human MIA PaCa-2 cells assessed as cell death up to 1 uM incubated for 6 days in presence of NAC; assay type: functional, cell-based; conditions: time 6.0 day

With N[C@@H]1[C@H]2CN(c3cnc(C(=O)Nc4cc(F)cc5cccnc45)cn3)C[C@@H]12 the Activity (CT26 [1]) was “Active”, the IC50 (PANC-1) was 4.4 µM and the Cmax [2] was 1620 ng/mL. The concentration at 7 h [3] was 882 ng/g, the Activity (MIA PaCa-2 [4]) was “Active” and the Activity (HCT-116 [5]) was “Active”. For the same molecule, the Activity (BXPC-3 [6]) was “Active”, the Activity (MIA PaCa-2 [7]) was “Active” and the IC50 (Panc02) was 8 µM. For the same molecule, the Activity (HCT-116 [8]) was “Active”, the Activity (KPC2) was “Active” and the Activity (BXPC-3 [9]) was “Active”. The clearance [10] was 72.5 mL/min/kg, the Activity (HCT-116 [11]) was “Active” and the Activity (MIA PaCa-2 [12]) was “Active”. The Activity [13] was “Non-toxic”, the concentration at 7 h [14] was 2690 ng/g and the half-life [15] was 186 min. For the same molecule, the Activity (MIA PaCa-2 [16]) was “Active”, the AUC(0-inf) [17] was 3810 ng·h/mL and the Activity (CT26 [18]) was “Active”. The IC50 (BXPC-3 [19]) was over 10 µM, the Activity (HCT-116 [20]) was “Active” and the Activity (HCT-116 [21]) was “Active”. For the same molecule, the Activity (HCT-116 [22]) was “Active”, the bioavailability [23] was 55.3% and the half-life [24] was over 60 min. The Activity (HCT-116 [25]) was “Active”, the Activity (MIA PaCa-2 [26]) was “Active” and the Cmax [27] was 364 ng/mL. For the same molecule, the Activity (HCT-116 [28]) was “Active”, the Activity (HCT-116 [29]) was “Active” and the IC50 [30] was 3400 nM. For the same molecule, the Activity (HCT-116 [31]) was “Active”, the Activity (MIA PaCa-2 [32]) was “inactive” and the IC50 (SU.86.86) was 1100 nM. The half-life [33] was 180 min, the Activity (MIA PaCa-2 [34]) was “Active” and the Activity (HCT-116 [35]) was “inactive”. The Activity (BXPC-3 [36]) was “Active”, the Activity (MIA PaCa-2 [37]) was “Active” and the Activity (MIA PaCa-2 [38]) was “Active”.
For C[C@@H]1OCC2(CCN(c3cnc(C(=O)Nc4cc(F)cc5cccnc45)cn3)CC2)[C@@H]1N, the IC50 (PANC-1) was 2.9 µM, the Cmax [2] was 3460 ng/mL and the Activity (MIA PaCa-2 [4]) was “Active”. The Activity (HCT-116 [5]) was “Active”, the Activity (BXPC-3 [6]) was “Active” and the Activity (MIA PaCa-2 [7]) was “Active”. The IC50 (Panc02) was 2.1 µM, the Activity (HCT-116 [8]) was “Active” and the Activity (KPC2) was “Active”. The Activity (BXPC-3 [9]) was “Active”, the clearance [10] was 37.7 mL/min/kg and the Activity (HCT-116 [11]) was “Active”. For the same molecule, the Activity (MIA PaCa-2 [12]) was “Active”, the half-life [15] was 294 min and the Activity (MIA PaCa-2 [16]) was “Active”. The AUC(0-inf) [17] was 6800 ng·h/mL, the IC50 (BXPC-3 [19]) was 8.5 µM and the Activity (HCT-116 [20]) was “Active”. The Activity (HCT-116 [21]) was “Active”, the Activity (HCT-116 [22]) was “Active” and the bioavailability [23] was 55.2%. For the same molecule, the half-life [24] was over 60 min, the Activity (HCT-116 [25]) was “Active” and the Activity (MIA PaCa-2 [26]) was “Active”. The Cmax [27] was 1020 ng/mL, the Activity (HCT-116 [28]) was “Active” and the Activity (HCT-116 [29]) was “Active”. For the same molecule, the IC50 [30] was 1900 nM, the Activity (HCT-116 [31]) was “Active” and the Activity (MIA PaCa-2 [32]) was “inactive”. The IC50 (SU.86.86) was 800 nM, the half-life [33] was 168 min and the Activity (MIA PaCa-2 [34]) was “Active”. The Activity (HCT-116 [35]) was “inactive”, the Activity (BXPC-3 [36]) was “Active” and the Activity (MIA PaCa-2 [37]) was “Active”. The Activity (MIA PaCa-2 [38]) was “Active”.
